The target in the experiment is T1, human recombinant HDAC6 (Homo sapiens, UniProt Q9UBN7).
T1 construct: purchased Calbiochem 382180
T1 sequence (Q9UBN7 1-1215): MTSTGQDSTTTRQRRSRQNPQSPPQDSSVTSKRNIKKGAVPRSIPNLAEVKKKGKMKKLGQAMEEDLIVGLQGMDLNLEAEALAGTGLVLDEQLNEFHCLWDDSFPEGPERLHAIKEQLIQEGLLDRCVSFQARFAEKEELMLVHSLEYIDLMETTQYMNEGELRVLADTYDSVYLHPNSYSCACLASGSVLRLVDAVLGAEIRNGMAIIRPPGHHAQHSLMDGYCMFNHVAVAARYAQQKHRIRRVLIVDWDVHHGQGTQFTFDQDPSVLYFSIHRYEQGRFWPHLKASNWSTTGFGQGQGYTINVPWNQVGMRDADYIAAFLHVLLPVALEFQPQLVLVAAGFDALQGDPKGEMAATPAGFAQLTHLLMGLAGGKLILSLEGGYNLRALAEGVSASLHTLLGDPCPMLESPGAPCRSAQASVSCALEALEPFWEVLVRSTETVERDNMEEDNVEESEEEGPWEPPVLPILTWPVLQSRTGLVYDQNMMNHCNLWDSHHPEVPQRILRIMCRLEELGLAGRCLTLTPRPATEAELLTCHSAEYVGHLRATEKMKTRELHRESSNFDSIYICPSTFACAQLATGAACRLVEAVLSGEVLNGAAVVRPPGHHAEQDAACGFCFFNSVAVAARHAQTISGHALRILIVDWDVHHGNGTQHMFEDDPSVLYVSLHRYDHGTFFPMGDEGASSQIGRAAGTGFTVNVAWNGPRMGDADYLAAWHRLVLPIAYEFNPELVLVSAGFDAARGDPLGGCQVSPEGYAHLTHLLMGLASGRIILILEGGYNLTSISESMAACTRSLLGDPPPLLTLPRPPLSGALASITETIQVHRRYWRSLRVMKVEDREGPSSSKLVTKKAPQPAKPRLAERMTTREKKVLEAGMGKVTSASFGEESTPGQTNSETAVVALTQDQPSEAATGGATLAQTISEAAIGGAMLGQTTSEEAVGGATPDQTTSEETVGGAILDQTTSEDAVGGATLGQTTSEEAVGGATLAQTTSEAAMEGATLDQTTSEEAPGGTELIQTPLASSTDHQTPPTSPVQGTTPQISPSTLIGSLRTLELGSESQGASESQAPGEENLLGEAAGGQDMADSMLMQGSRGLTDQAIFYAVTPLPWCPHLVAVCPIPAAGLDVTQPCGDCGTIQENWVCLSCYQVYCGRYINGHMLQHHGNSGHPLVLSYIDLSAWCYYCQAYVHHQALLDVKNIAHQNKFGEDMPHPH
Kind of experiment: HDAC6 enzyme activity inhibition assay (HDAC Fluorimetric Drug Discovery Kit). Type of experiment: biochemical. Conditions: for HDAC6 selectivity (fold): HDAC6 over HDAC1; for IC50: human recombinant HDAC6, same protocol as HDAC1, read-out: HDAC6. An outline of the steps: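 Human recombinant HDAC1 or HDAC6 (0.3 μg) reacted with 10 μM Fluor de Lys-SIRT1 substrate and 5-fold compound dilutions for 60 min at 30 °C. Developer II added for 30 min, fluorescence read at Ex 360/Em 460; IC50 calculated from the readings.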

Molecules are shown by their SMILES.

As to `O=C(NCCN1CCOCC1)N(Cc1ccc(-c2nnc(C(F)F)o2)cc1F)c1ccccc1` [Compound 21982, 1-(4-(5-(Difluoromethyl)-1,3,4-oxadiazol-2-yl)-2-fluorobenzyl)-3-(2-morpholinoethyl)-1-phenylurea], the “HDAC6 selectivity (fold)” value came out at 96 fold and the IC50 is 104 nM.

`O=C(NCCN1CC(F)(F)C1)N(Cc1ccc(-c2nnc(C(F)F)o2)cc1F)c1ccccc1` [Compound 21983, 3-(2-(3,3-Difluoroazetidin-1-yl)ethyl)-1-(4-(5-(difluoromethyl)-1,3,4-oxadiazol-2-yl)-2-fluorobenzyl)-1-phenylurea]: the “HDAC6 selectivity (fold)” value worked out at 63 fold and the IC50 came out at 160 nM.

On to `O=C(CN1CCN(CCNC(=O)N(Cc2ccc(-c3nnc(C(F)F)o3)cc2F)c2ccccc2)CC1)N1CCOCC1` [Compound 21984, 1-(4-(5-(Difluoromethyl)-1,3,4-oxadiazol-2-yl)-2-fluorobenzyl)-3-(2-(4-(2-morpholino-2-oxoethyl)piperazin-1-yl)ethyl)-1-phenylurea], for which the “HDAC6 selectivity (fold)” value is 107 fold and the IC50 is 93 nM.

Regarding `O=C(NCCN1CCCOCC1)N(Cc1ccc(-c2nnc(C(F)F)o2)cc1F)c1ccccc1` [Compound 21986, 3-(2-(1,4-Oxazepan-4-yl)ethyl)-1-(4-(5-(difluoromethyl)-1,3,4-oxadiazol-2-yl)-2-fluorobenzyl)-1-phenylurea], the “HDAC6 selectivity (fold)” value is 207 fold and the IC50 was found to be 48 nM.

As to `O=C(NCCN1CCC[C@@H]1C(F)(F)F)N(Cc1ccc(-c2nnc(C(F)F)o2)cc1F)c1ccccc1` [Compound 21987, (R)-1-(4-(5-(difluoromethyl)-1,3,4-oxadiazol-2-yl)-2-fluorobenzyl)-1-phenyl-3-(2-(2-(trifluoromethyl)pyrrolidin-1-yl)ethyl)urea], the “HDAC6 selectivity (fold)” value turned out to be 47 fold and the IC50 came out at 213 nM.

On to `O=C(NCCN1CCC[C@H]1C(F)(F)F)N(Cc1ccc(-c2nnc(C(F)F)o2)cc1F)c1ccccc1` [Compound 21988, (S)-1-(4-(5-(difluoromethyl)-1,3,4-oxadiazol-2-yl)-2-fluorobenzyl)-1-phenyl-3-(2-(2-(trifluoromethyl)pyrrolidin-1-yl)ethyl)urea], for which the “HDAC6 selectivity (fold)” value amounted to 33 fold and the IC50 amounted to 301 nM.

Take `CC1CCN(CCNC(=O)N(Cc2ccc(-c3nnc(C(F)F)o3)cc2F)c2ccccc2)CC1` [Compound 21989, 1-(4-(5-(Difluoromethyl)-1,3,4-oxadiazol-2-yl)-2-fluorobenzyl)-3-(2-(4-methylpiperidin-1-yl)ethyl)-1-phenylurea]: the “HDAC6 selectivity (fold)” value is listed as 80 fold and the IC50 was found to be 124 nM.

For `O=C(NCCN1CCC(F)CC1)N(Cc1ccc(-c2nnc(C(F)F)o2)cc1F)c1ccccc1` [Compound 21990, 1-(4-(5-(Difluoromethyl)-1,3,4-oxadiazol-2-yl)-2-fluorobenzyl)-3-(2-(4-fluoropiperidin-1-yl)ethyl)-1-phenylurea], the “HDAC6 selectivity (fold)” value is reported as 100 fold and the IC50 is 100 nM.

Consider `O=C1CCN(CCNC(=O)N(Cc2ccc(-c3nnc(C(F)F)o3)cc2F)c2ccccc2)CC1` [Compound 21991, 1-(4-(5-(Difluoromethyl)-1,3,4-oxadiazol-2-yl)-2-fluorobenzyl)-3-(2-(4-oxopiperidin-1-yl)ethyl)-1-phenylurea], for which the “HDAC6 selectivity (fold)” value was determined as 120 fold and the IC50 was determined as 83 nM.

As for `C[C@@H]1CN(CCNC(=O)N(Cc2ccc(-c3nnc(C(F)F)o3)cc2F)c2ccccc2)C[C@H](C)N1` [Compound 21992, 1-(4-(5-(Difluoromethyl)-1,3,4-oxadiazol-2-yl)-2-fluorobenzyl)-3-(2-((3S,5R)-3,5-dimethylpiperazin-1-yl)ethyl)-1-phenylurea], the “HDAC6 selectivity (fold)” value came to 133 fold and the IC50 stood at 75 nM.

Source of the values: US10717716B2, “1,3,4-oxadiazole derivative compounds as histone deacetylase 6 inhibitor, and the pharmaceutical composition comprising the same” (Chong Kun Dang Pharmaceutical Corp., priority 2015, dated 2020).
